Measurements: patent US9499553B2 (CHUGAI SEIYAKU KABUSHIKI KAISHA, priority 2013, dated 2016)

These molecules were tested against T1, human NaPi-IIb (Homo sapiens, UniProt O95436) (assay: Inhibitory effect on 33PO4 uptake into human NaPi-IIb-expressing CHO cells). Conditions: read-out: IC50 against 33PO4 uptake into human NaPi-IIb-expressing cells.
T1 construct: expressed in transfected cells
T1 sequence (O95436 1-690): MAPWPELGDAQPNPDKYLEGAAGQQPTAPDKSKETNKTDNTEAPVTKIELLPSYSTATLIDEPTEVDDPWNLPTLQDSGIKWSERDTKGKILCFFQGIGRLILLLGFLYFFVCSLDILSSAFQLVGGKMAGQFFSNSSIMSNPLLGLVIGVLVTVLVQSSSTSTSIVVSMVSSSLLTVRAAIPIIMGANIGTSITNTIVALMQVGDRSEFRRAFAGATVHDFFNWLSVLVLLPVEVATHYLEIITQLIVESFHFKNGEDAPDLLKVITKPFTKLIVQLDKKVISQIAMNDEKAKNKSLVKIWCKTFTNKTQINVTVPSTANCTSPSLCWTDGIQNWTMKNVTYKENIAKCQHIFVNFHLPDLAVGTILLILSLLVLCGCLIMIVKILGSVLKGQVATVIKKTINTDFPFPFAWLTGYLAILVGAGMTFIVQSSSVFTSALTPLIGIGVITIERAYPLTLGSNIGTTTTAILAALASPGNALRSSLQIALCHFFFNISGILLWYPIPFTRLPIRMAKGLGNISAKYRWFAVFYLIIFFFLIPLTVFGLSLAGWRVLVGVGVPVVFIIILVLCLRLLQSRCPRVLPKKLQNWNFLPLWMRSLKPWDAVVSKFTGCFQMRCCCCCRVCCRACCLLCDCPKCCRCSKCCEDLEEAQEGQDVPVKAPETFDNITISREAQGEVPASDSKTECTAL
Type: cell-based
Procedure, shortened: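 Uptake of ³³PO4 was measured by scintillation counting after ice-cold buffer A washes. Cells were CHO stably expressing human NaPi-IIb, seeded overnight, and exposed to ³³PO4 in buffer A at room temperature.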

| Structure (SMILES) | IC50 [µM] |
| --- | --- |
| CN(CCOCCOCCOCCOCCOc1ccc(CN2C(=O)C(C(=O)Nc3ccc(C(F)(F)F)cc3-c3cc(C(F)(F)F)ncn3)=C(O)C3(CCCC3)N2C)c(F)c1F)C[C@@H](O)[C@H](O)[C@@H](O)[C@@H](O)CO [Example 421, 7-[[2,3-Difluoro-4-[2-[2-[2-[2-[2-[methyl-[(2R,3 S,4S,5 S)-2,3,4,5,6-pentahydroxyhexyl]amino]ethoxy]ethoxy]ethoxy]ethoxy]ethoxy]phenyl]methyl]-10-hydroxy-6-methyl-8-oxo-N-[4-(trifluoromethyl)-2-[6-(trifluoromethyl)pyrimidin-4-yl]phenyl]-6,7-diazaspiro[4.5]dec-9-ene-9-carboxamide] | 19.5 |
| CN(C[C@H](O)[C@@H](O)[C@H](O)[C@H](O)CO)C(=O)CCOCCOCCOCCOc1ccc(CN2C(=O)C(C(=O)Nc3ccc(C(F)(F)F)cc3-c3cc(C(F)(F)F)ncn3)=C(O)C3(CCCC3)N2C)c(F)c1F [Example 423] | 20 |
| CN1N(Cc2ccc(OCCOCCOCCOCCC(=O)NCC(O)CO)c(F)c2F)C(=O)C(C(=O)Nc2ccc(C(F)(F)F)cc2-c2cc(C(F)(F)F)ncn2)=C(O)C12CCCC2 (stereo not shown) [Example 424] | 29 |
| CN(CCOCCC(=O)N(C)C[C@H](O)[C@@H](O)[C@H](O)[C@H](O)CO)CCOc1ccc(CN2C(=O)C(C(=O)Nc3ccc(C(F)(F)F)cc3-c3cc(C(F)(F)F)ncn3)=C(O)C3(CCCC3)N2C)c(F)c1F [Example 425] | 28.1 |
| CN(CCOCCC(=O)NCC(O)CO)CCOc1ccc(CN2C(=O)C(C(=O)Nc3ccc(C(F)(F)F)cc3-c3cc(C(F)(F)F)ncn3)=C(O)C3(CCCC3)N2C)c(F)c1F (stereo not shown) [Example 426] | 26.1 |
| CN1N(Cc2ccc(OCCOCCNC(=O)[C@@H](O)[C@H](O)[C@@H](O)[C@@H](O)CO)c(F)c2F)C(=O)C(C(=O)Nc2ccc(C(F)(F)F)cc2-c2cc(C(F)(F)F)ncn2)=C(O)C12CCCC2 [Example 427] | 17.4 |
| CN1N(Cc2ccc(OCCOCCOCCOCCNC(=O)[C@@H](O)[C@H](O)[C@@H](O)[C@@H](O)CO)c(F)c2F)C(=O)C(C(=O)Nc2ccc(C(F)(F)F)cc2-c2cc(C(F)(F)F)ncn2)=C(O)C12CCCC2 [Example 428, 7-[[2,3-Difluoro-4-[2-[2-[2-[2-[[(2S,3R,4S,5S)-2,3,4,5,6-pentahydroxyhexanoyl]amino]ethoxy]ethoxy]ethoxy]ethoxy]phenyl]methyl]-10-hydroxy-6-methyl-8-oxo-N-[4-(trifluoromethyl)-2-[6-(trifluoromethyl)pyrimidin-4-yl]phenyl]-6,7-diazaspiro[4.5]dec-9-ene-9-carboxamide] | 23 |
| COCCN(C)CCOCCOc1ccc(CN2C(=O)C(C(=O)Nc3ccc(C(F)(F)F)cc3-c3cc(C(F)(F)F)ncn3)=C(O)C3(CCCC3)N2C)c(F)c1F [Example 429, 7-[[2,3-Difluoro-4-[2-[2-[2-methoxyethyl(methyl)amino]ethoxy]ethoxy]phenyl]methyl]-10-hydroxy-6-methyl-8-oxo-N-[4-(trifluoromethyl)-2-[6-(trifluoromethyl)pyrimidin-4-yl]phenyl]-6,7-diazaspiro[4.5]dec-9-ene-9-carboxamide] | 7.7 |
| COCCN(C)CCOCCOCCOc1ccc(CN2C(=O)C(C(=O)Nc3ccc(C(F)(F)F)cc3-c3cc(C(F)(F)F)ncn3)=C(O)C3(CCCC3)N2C)c(F)c1F [Example 430] | 4.6 |
| COCCN(C)CCOCCOCCOCCOc1ccc(CN2C(=O)C(C(=O)Nc3ccc(C(F)(F)F)cc3-c3cc(C(F)(F)F)ncn3)=C(O)C3(CCCC3)N2C)c(F)c1F [Example 431] | 6.2 |
| COCCN(C)CCOCCOCCOCCOCCOc1ccc(CN2C(=O)C(C(=O)Nc3ccc(C(F)(F)F)cc3-c3cc(C(F)(F)F)ncn3)=C(O)C3(CCCC3)N2C)c(F)c1F [Example 432] | 6.3 |
| CN1N(Cc2ccc(OCCNCCS(=O)(=O)O)c(F)c2F)C(=O)C(C(=O)Nc2ccc(C(F)(F)F)cc2-c2cc(C(F)(F)F)ncn2)=C(O)C12CCCC2 [Example 435] | 17.1 |
| COCCN(C)CCOc1c(I)cc(CN2C(=O)C(C(=O)Nc3ccc(C(F)(F)F)cc3-c3cc(C(F)(F)F)ncn3)=C(O)C3(CCCC3)N2C)c(F)c1F [Example 437, 7-[[2,3-Difluoro-5-iodo-4-[2-[2-methoxyethyl(methyl)amino]ethoxy]phenyl]methyl]-10-hydroxy-6-methyl-8-oxo-N-[4-(trifluoromethyl)-2-[6-(trifluoromethyl)pyrimidin-4-yl]phenyl]-6,7-diazaspiro[4.5]dec-9-ene-9-carboxamide] | 19.5 |
| COCCCN(C)C(=O)c1cc(CN2C(=O)C(C(=O)Nc3ccc(C(F)(F)F)cc3-c3cc(C(F)(F)F)ncn3)=C(O)C3(CCCC3)N2C)c(F)c(F)c1OCCN(C)CCOC [Example 438] | 21.9 |
| COCCOc1cc(NC(=O)C2=C(O)C3(CCCC3)N(C)N(Cc3ccc(OCCN(C)CCOC)c(F)c3F)C2=O)c(-c2ncnc(C(F)(F)F)c2C)cc1C(F)(F)F [Example 439, 7-[[2,3-Difluoro-4-[2-[2-methoxyethyl(methyl)amino]ethoxy]phenyl]methyl]-10-hydroxy-N-[5-(2-methoxyethoxy)-2-[5-methyl-6-(trifluoromethyl)pyrimidin-4-yl]-4-(trifluoromethyl)phenyl]-6-methyl-8-oxo-6,7-diazaspiro[4.5]dec-9-ene-9-carboxamide] | 18.9 |
| COCCN(C)CCOc1c(-c2cccnc2)cc(CN2C(=O)C(C(=O)Nc3ccc(C(F)(F)F)cc3-c3cc(C(F)(F)F)ncn3)=C(O)C3(CCCC3)N2C)c(F)c1F [Example 440, 9-[[2,3-Difluoro-4-[2-[2-methoxyethyl(methyl)amino]ethoxy]-5-(3-pyridinyl)phenyl]methyl]-6-hydroxy-10-methyl-8-oxo-N-[4-(trifluoromethyl)-2-[6-(trifluoromethyl)pyrimidin-4-yl]phenyl]-9,10-diazaspiro[4.5]dec-6-ene-7-carboxamide] | 22.6 |
| CN(C[C@H](O)[C@@H](O)[C@H](O)[C@H](O)CO)C(=O)COCCOCCOCCOCCOc1ccc(CN2C(=O)C(C(=O)Nc3ccc(C(F)(F)F)cc3-c3cc(C(F)(F)F)ncn3)=C(O)C3(CCCC3)N2C)c(F)c1F [Example 441, 7-[[2,3-Difluoro-4-[2-[2-[2-[2-[2-[methyl-[(2S,3R,4R,5R)-2,3,4,5,6-pentahydroxyhexyl]amino]-2-oxoethoxy]ethoxy]ethoxy]ethoxy]ethoxy]phenyl]methyl]-10-hydroxy-6-methyl-8-oxo-N-[4-(trifluoromethyl)-2-[6-(trifluoromethyl)pyrimidin-4-yl]phenyl]-6,7-diazaspiro[4.5]dec-9-ene-9-carboxamide] | 21.4 |
| COCCN(C)CCN(C)c1ccc(CN2C(=O)C(C(=O)Nc3ccc(C(F)(F)F)cc3-c3cc(C(F)(F)F)ncn3)=C(O)C3(CCCC3)N2C)c(F)c1F [Example 442] | 6.3 |
| CCN(CCN(C)CCOC)c1ccc(CN2C(=O)C(C(=O)Nc3ccc(C(F)(F)F)cc3-c3cc(C(F)(F)F)ncn3)=C(O)C3(CCCC3)N2C)c(F)c1F [Example 443] | 8.9 |
| CCCN(CCN(C)CCOC)c1ccc(CN2C(=O)C(C(=O)Nc3ccc(C(F)(F)F)cc3-c3cc(C(F)(F)F)ncn3)=C(O)C3(CCCC3)N2C)c(F)c1F [Example 444] | 7.4 |
| COCCN(C)CCN(c1ccc(CN2C(=O)C(C(=O)Nc3ccc(C(F)(F)F)cc3-c3cc(C(F)(F)F)ncn3)=C(O)C3(CCCC3)N2C)c(F)c1F)C(C)C [Example 445] | 9.2 |
| CN1N(Cc2ccc(NCCCN3CCOCC3)c(F)c2F)C(=O)C(C(=O)Nc2ccc(C(F)(F)F)cc2-c2cc(C(F)(F)F)ncn2)=C(O)C12CCCC2 [Example 446] | 11.1 |
